# Literature values as cited in patent EP1964550A1, “Glucocorticoid-nitrooxyderivative compositions” (NicOx S.A., priority 2007, dated 2008).
# Tested on: irritant acute dermatitis
# Conditions: oedema formation and recruitment of leukocytes evaluated; compared with parent compound hydrocortisone
smiles,measurement,value
C[C@]12CCC(=O)C=C1CC[C@@H]1[C@@H]2[C@@H](O)C[C@@]2(C)[C@H]1CC[C@]2(O)C(=O)COC(=O)c1ccc(CO[N+](=O)[O-])cc1 [hydrocortisone 21-[4'-(nitrooxymethyl)benzoate]],anti-inflammatory activity,higher anti-inflammatory activity than the parent compound hydrocortisone
